According to the supplement of paper PMC6045584:
± gives the standard deviation of the averaged measurements.

Experiments:
[1] = compound: CC(=O)NCC(=O)N1[C@@H]2CC[C@H]1c1ccc(Nc3ncc(C(F)(F)F)c(NC4CCC4)n3)cc12; experiment: surviving fraction relative to DMSO-only wells; higher = less growth inhibition; details: exposure time: 5 days
Summary of the method: (§1)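 At 250–500 cells per well in 384-well plates, log-phase tumour cell lines were seeded and, 24 hours on, exposed continuously for five days to inhibitors at 0.5, 1, 5, 10, 50, 100, 500 and 1000 nM. Viability readout was CellTiter-Glo luminescence, reported as surviving fraction normalised to the median of DMSO-only wells.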

CELECOXIB = compound: Cc1ccc(-c2cc(C(F)(F)F)nn2-c2ccc(S(N)(=O)=O)cc2)cc1 [CELECOXIB]; experiment: as above; details: exposure time: 5 days
Summary of the method: as §1

Test System	surviving fraction ([1]; 0.5 nM)	surviving fraction ([1]; 1 nM)	surviving fraction ([1]; 5 nM)	surviving fraction ([1]; 10 nM)	surviving fraction ([1]; 50 nM)	surviving fraction ([1]; 100 nM)	surviving fraction ([1]; 500 nM)	surviving fraction ([1]; 1000 nM)	surviving fraction (CELECOXIB; 0.5 nM)	surviving fraction (CELECOXIB; 1 nM)	surviving fraction (CELECOXIB; 5 nM)	surviving fraction (CELECOXIB; 10 nM)	surviving fraction (CELECOXIB; 50 nM)	surviving fraction (CELECOXIB; 100 nM)	surviving fraction (CELECOXIB; 500 nM)	surviving fraction (CELECOXIB; 1000 nM)
SUM159 BREAST	1.11 ± 0.22	1.08 ± 0.16	1.1 ± 0.21	1.07 ± 0.16	0.956 ± 0.085	0.72 ± 0.027	0.56 ± 0.014	0.436 ± 0.0095	1.07 ± 0.032	1.1 ± 0.031	1.09 ± 0.032	1.08 ± 0.048	1.08 ± 0.014	1.1 ± 0.024	1.07 ± 0.021	1.09 ± 0.017
MDAMB231 BREAST	0.975 ± 0.018	0.98 ± 0.016	0.974 ± 0.011	0.967 ± 0.015	0.706 ± 0.063	0.571 ± 0.027	0.416 ± 0.022	0.337 ± 0.018	0.973 ± 0.02	1 ± 0.015	0.985 ± 0.018	1 ± 0.015	1.01 ± 0.02	1.04 ± 0.012	1.04 ± 0.03	1.02 ± 0.033
HS578T BREAST	1 ± 0.016	0.962 ± 0.088	0.918 ± 0.23	0.879 ± 0.027	0.866 ± 0.085	0.721 ± 0.081	0.592 ± 0.071	0.559 ± 0.11	0.9 ± 0.013	0.892 ± 0.26	0.942 ± 0.14	0.942 ± 0.093	0.923 ± 0.12	1.11 ± 0.17	0.961 ± 0.083	0.969 ± 0.1
COLO320DM LARGE INTESTINE	1.1 ± 0.058	1.09 ± 0.077	0.979 ± 0.086	0.954 ± 0.035	0.573 ± 0.087	0.559 ± 0.02	0.283 ± 0.0029	0.237 ± 0.015	1.12 ± 0.18	1.12 ± 0.17	1.15 ± 0.075	1.12 ± 0.15	1.14 ± 0.043	1.15 ± 0.025	1.15 ± 0.074	1.13 ± 0.031
OS25HAL BONE	0.962 ± 0.045	0.9613 ± 0.0038	0.97 ± 0.024	0.947 ± 0.015	0.796 ± 0.062	0.605 ± 0.092	0.428 ± 0.069	0.264 ± 0.029	1.03 ± 0.017	1.02 ± 0.033	1.06 ± 0.021	1.07 ± 0.022	1.06 ± 0.044	1.1 ± 0.035	1.15 ± 0.08	1.08 ± 0.051
HMLE3 BREAST	0.923 ± 0.046	0.934 ± 0.029	1.01 ± 0.053	0.941 ± 0.092	0.807 ± 0.027	0.689 ± 0.0078	0.357 ± 0.026	0.237 ± 0.041	1.08 ± 0.07	1.06 ± 0.032	1.08 ± 0.1	1.06 ± 0.025	1.04 ± 0.15	1.09 ± 0.076	1.1 ± 0.061	1.03 ± 0.17
SUM149.B1*.S BREAST	1 ± 0.017	1.01 ± 0.037	0.979 ± 0.017	0.976 ± 0.038	0.938 ± 0.047	0.685 ± 0.049	0.569 ± 0.024	0.499 ± 0.043	1.075 ± 0.01	1.09 ± 0.021	1.13 ± 0.075	1.12 ± 0.016	1.14 ± 0.055	1.16 ± 0.038	1.12 ± 0.067	1.2 ± 0.029
T47D BREAST	0.9824 ± 0.0044	1.02 ± 0.014	1.03 ± 0.032	1.05 ± 0.046	1.16 ± 0.025	1.09 ± 0.013	1.12 ± 0.018	1.07 ± 0.013	1.08 ± 0.026	1.05 ± 0.081	1.08 ± 0.043	1.08 ± 0.035	1.14 ± 0.054	1.15 ± 0.021	1.11 ± 0.014	1.13 ± 0.012
HOSMNG BONE	0.997 ± 0.028	1.01 ± 0.06	0.962 ± 0.033	0.989 ± 0.016	0.886 ± 0.088	0.874 ± 0.041	0.449 ± 0.019	0.392 ± 0.0087	0.941 ± 0.06	0.968 ± 0.093	0.923 ± 0.047	0.879 ± 0.11	1.01 ± 0.059	1.08 ± 0.098	1.05 ± 0.13	1.02 ± 0.072
MDAMB134 BREAST	0.998 ± 0.048	1.07 ± 0.37	1.01 ± 0.04	1.02 ± 0.11	0.992 ± 0.041	1.25 ± 0.18	1.13 ± 0.12	1.31 ± 0.1	0.969 ± 0.016	0.898 ± 0.054	0.881 ± 0.084	0.913 ± 0.083	1.18 ± 0.2	1.18 ± 0.12	0.984 ± 0.095	0.978 ± 0.085
